Data published in patent publication US6194434A, “Cycloalkylaminomethylpyrrolidine derivatives” (Daiichi Pharmaceutical Co., Ltd., priority 1996, dated 2001).
≈ marks a conversion by molar mass, not a printed value. Where two headings read alike, the source gives them in different places.

Columns and labels:
Assay in all cases: Antimicrobial activity (MIC), standard method of the Japan Chemotherapeutic Society
Assay type in all cases: cell-based
E. coli, NIHJ = system: E. coli, NIHJ
Text: (§1) The antimicrobial activity of the compounds obtained in Examples 1 to 3 was examined in accordance with the standard method specified by the Japan Chemotherapeutic Society.

Pr. mirabilis, IFO-3849 = system: Pr. mirabilis, IFO-3849
Text: as §1

Pr. vulgaris, 08601 = system: Pr. vulgaris, 08601
Text: as §1

Ps. aeruginosa, 32104 = system: Ps. aeruginosa, 32104
Text: as §1

Ps. aeruginosa, 32121 = system: Ps. aeruginosa, 32121
Text: as §1

[1] = system: Ps. maltophilia, IID-1275
Text: as §1

S. aureaus, 870307 = system: S. aureaus, 870307
Text: as §1

S. aureus, 209P = system: S. aureus, 209P
Text: as §1

S. epidermidis, 56500 = system: S. epidermidis, 56500
Text: as §1

S. flexneli, 2A 5503 = system: S. flexneli, 2A 5503
Text: as §1

Ser. marcescens, 10100 = system: Ser. marcescens, 10100
Text: as §1

[2] = system: Str. faecalis, ATCC-19433
Text: as §1

Str. pyrogenes, G-36 = system: Str. pyrogenes, G-36
Text: as §1

[3] = Pseudomonas aeruginosa, read-out: MIC

Structure (SMILES): Cc1c(N2CC[C@H](CNC3CC3)C2)c(F)cc2c(=O)c(C(=O)O)cn([C@@H]3C[C@@H]3F)c12 [Example 1, 7-[3-(R)-Cyclopropylaminomethyl-1-pyrrolidinyl]-6-fluoro-1-[(1R,2S)-2-fluorocyclopropyl]-1,4-dihydro-8-methyl-4-oxoquinoline-3-carboxylic Acid]
- MIC (E. coli, NIHJ; Escherichia coli, read-out: MIC): ≤ 0.003 µg/mL
- MIC (Pr. mirabilis, IFO-3849; Proteus mirabilis, IFO3849, read-out: MIC): 0.025 µg/mL (≈ 0.0599 µM)
- MIC (Pr. vulgaris, 08601; Proteus vulgaris, read-out: MIC): 0.006 µg/mL (≈ 0.0144 µM)
- MIC (Ps. aeruginosa, 32104; [3]): 0.2 µg/mL (≈ 0.479 µM)
- MIC (Ps. aeruginosa, 32121; [3]): 0.1 µg/mL (≈ 0.24 µM)
- MIC ([1]; Stenotrophomonas maltophilia, IID1275, read-out: MIC): 0.05 µg/mL (≈ 0.12 µM)
- MIC (S. aureaus, 870307; read-out: MIC): 0.025 µg/mL (≈ 0.0599 µM)
- MIC (S. aureus, 209P; Staphylococcus aureus, read-out: MIC): ≤ 0.003 µg/mL
- MIC (S. epidermidis, 56500; Staphylococcus epidermidis, read-out: MIC): 0.013 µg/mL (≈ 0.0311 µM)
- MIC (S. flexneli, 2A 5503): 0.006 µg/mL (≈ 0.0144 µM)
- MIC (Ser. marcescens, 10100; Serratia marcescens, read-out: MIC): 0.1 µg/mL (≈ 0.24 µM)
- MIC ([2]; Enterococcus faecalis, ATCC19433, read-out: MIC): 0.025 µg/mL (≈ 0.0599 µM)
- MIC (Str. pyrogenes, G-36; read-out: MIC): 0.013 µg/mL (≈ 0.0311 µM)

Structure (SMILES): COc1c(N2CC[C@H](CNC3CC3)C2)c(F)c(N)c2c(=O)c(C(=O)O)cn([C@@H]3C[C@@H]3F)c12 [Example 2, 5-Amino-7-[3-(R)-(N-cyclopropylaminomethyl)-1-pyrrolidinyl]-6-fluoro-1-[(1R,2S)-2-fluorocyclopropyl]-1,4-dihydro-8-methoxy-4-oxocquinoline-3-carboxylic Acid]
- MIC (E. coli, NIHJ): 0.006 µg/mL (≈ 0.0134 µM)
- MIC (Pr. mirabilis, IFO-3849): 0.20 µg/mL (≈ 0.446 µM)
- MIC (Pr. vulgaris, 08601): 0.10 µg/mL (≈ 0.223 µM)
- MIC (Ps. aeruginosa, 32104): 0.78 µg/mL (≈ 1.74 µM)
- MIC (Ps. aeruginosa, 32121): 0.78 µg/mL (≈ 1.74 µM)
- MIC [1]: 0.20 µg/mL (≈ 0.446 µM)
- MIC (S. aureaus, 870307): 0.05 µg/mL (≈ 0.111 µM)
- MIC (S. aureus, 209P): ≤ 0.003 µg/mL
- MIC (S. epidermidis, 56500): 0.013 µg/mL (≈ 0.029 µM)
- MIC (S. flexneli, 2A 5503; S. flexneli, 2A 5503): 0.013 µg/mL (≈ 0.029 µM)
- MIC (Ser. marcescens, 10100): 0.39 µg/mL (≈ 0.87 µM)
- MIC [2]: 0.10 µg/mL (≈ 0.223 µM)
- MIC (Str. pyrogenes, G-36): 0.025 µg/mL (≈ 0.0557 µM)

Structure (SMILES): Cc1c(N2CC[C@H](CNC3CC3)C2)c(F)c(N)c2c(=O)c(C(=O)O)cn([C@@H]3C[C@@H]3F)c12.Cl [Example 3, 5-Amino-7-[(3R)-N-cyclopropylaminomethyl-1-pyrrolidinyl]-6-fluoro-1-[(1R,2S)-2-fluorocyclopropyl]-1,4-dihydro-8-methyl-4-oxoquinoline-3-carboxylic Acid Hydrochloride]
- MIC (E. coli, NIHJ): 0.006 µg/mL
- MIC (Pr. mirabilis, IFO-3849): 0.10 µg/mL
- MIC (Pr. vulgaris, 08601): 0.05 µg/mL
- MIC (Ps. aeruginosa, 32104): 0.39 µg/mL
- MIC (Ps. aeruginosa, 32121): 0.20 µg/mL
- MIC [1]: 0.10 µg/mL
- MIC (S. aureaus, 870307): 0.025 µg/mL
- MIC (S. aureus, 209P): ≤ 0.003 µg/mL
- MIC (S. epidermidis, 56500): 0.006 µg/mL
- MIC (S. flexneli, 2A 5503; S. flexneli, 2A 5503): 0.006 µg/mL
- MIC (Ser. marcescens, 10100): 0.20 µg/mL
- MIC [2]: 0.05 µg/mL
- MIC (Str. pyrogenes, G-36): 0.013 µg/mL
